Test results reported in patent US10301295B2, “Herbicidal compounds” (Syngenta Participations AG, priority 2014, dated 2019).
Where two headings read alike, the source gives them in different places.

Key:
Assay in all cases: Glasshouse assay for herbicidal activity, pre-/post-emergence (percentage phytotoxicity)
Type in all cases: in vivo
[1] = tested on: Alopecurus myosuroides (ALOMY); settings: Alopecurus myosuroides, Rate 250 g/ha, 100%=total damage, 0%=no damage
Protocol: (§1) Seeds of a variety of monocotyledonous and dicotyledonous test plants are sown in standard soil in pots. The plants are cultivated for one day (for pre-emergence) or for about 12 days (for post-emergence) under controlled conditions in a glasshouse (warm climate species at 24/18° C., cool climate species at 20/16° C., both at day/night; 16 hours light; 65% humidity). The test plants are then grown on, in a glasshouse (greenhouse) under controlled conditions (warm climate species at 24/18° C., cool climate species at 20/16° C., both at day/night; 16 hours light; 65% humidity) and are watered twice daily. 15 days after application of the test herbicide (15DAA) (for post-emergence), and 20 days after application of the test herbicide (20DAA) (for pre-emergence), the test plants are evaluated visually, and an assessed percentage phytotoxicity score is given for each herbicidal application on each plant species (with 100%=total damage to plant; 0%=no damage to plant). The plant species tested are as follows: Alopecurus myosuroides (ALOMY), Avena fatua (AVEFA), Lolium perenne (LOLPE), Echinochloa crus-galli (ECHCG).

[2] = tested on: Avena fatua (AVEFA); settings: Avena fatua, Rate 250 g/ha, 100%=total damage, 0%=no damage
Protocol: as §1

[3] = tested on: Echinochloa crus-galli (ECHCG); settings: Echinochloa crus-galli, Rate 250 g/ha, 100%=total damage, 0%=no damage
Protocol: as §1

[4] = tested on: Lolium perenne (LOLPE); settings: Lolium perenne, Rate 250 g/ha, 100%=total damage, 0%=no damage
Protocol: as §1

[5] = 360 h, post-emergence, visual assessment 15 DAA, read-out: Post-emergence herbicidal activity (percentage phytotoxicity), ALOMY POST
[6] = 480 h, pre-emergence, visual assessment 20 DAA, read-out: Pre-emergence herbicidal activity (percentage phytotoxicity), ALOMY PRE
[7] = post-emergence, 360 h, post-emergence, visual assessment 15 DAA, read-out: Post-emergence herbicidal activity (percentage phytotoxicity), AVEFA POST
[8] = pre-emergence, 480 h, pre-emergence, visual assessment 20 DAA, read-out: Pre-emergence herbicidal activity (percentage phytotoxicity), AVEFA PRE
[9] = post-emergence, 360 h, post-emergence, visual assessment 15 DAA, read-out: Post-emergence herbicidal activity (percentage phytotoxicity), ECHCG POST
[10] = pre-emergence, 480 h, pre-emergence, visual assessment 20 DAA, read-out: Pre-emergence herbicidal activity (percentage phytotoxicity), ECHCG PRE
[11] = post-emergence, 360 h, post-emergence, visual assessment 15 DAA, read-out: Post-emergence herbicidal activity (percentage phytotoxicity), LOLPE POST
[12] = pre-emergence, 480 h, pre-emergence, visual assessment 20 DAA, read-out: Pre-emergence herbicidal activity (percentage phytotoxicity), LOLPE PRE

SMILES | pest or weed control at 250 g/ha [1, 5] [%] | pest or weed control at 250 g/ha [1, 6] [%] | pest or weed control at 250 g/ha [2, 7] [%] | pest or weed control at 250 g/ha [2, 8] [%] | pest or weed control at 250 g/ha [3, 9] [%] | pest or weed control at 250 g/ha [3, 10] [%] | pest or weed control at 250 g/ha [4, 11] [%] | pest or weed control at 250 g/ha [4, 12] [%]
Cc1cc(-c2ncc(F)cn2)cc(C)c1C1C(=O)CC(CCNC(=O)C2=NOC(C)(C)C2)C1=O (centres unmarked) [Compound A110] | 100 | 100 | 100 | 90 | 100 | 90 | 90 | 90
Cc1cc(C)c(C2C(=O)CC(CCNc3ccc([N+](=O)[O-])cc3)C2=O)c(C)c1 (centres unmarked) [Compound A105] | 90 | 20 | 80 | 20 | 90 | 10 | 80 | 20
CC#Cc1cc(C)c(C2C(=O)CC(CCNc3ccc(C(F)(F)F)cn3)C2=O)c(C)c1 (centres unmarked) [Compound A113] | 100 | 90 | 100 | 70 | 100 | 90 | 100 | 90
Cc1cc(C)c(C2C(=O)CC(CCNc3ncc(C(F)(F)F)cc3F)C2=O)c(C)c1 (centres unmarked) [Compound A97] | 90 | 80 | 90 | 90 | 100 | 90 | 90 | 100
Cc1cc(-c2ccc(F)cc2)cc(C)c1C1C(=O)CC(CCNC(=O)C2=NOC(C)(C)C2)C1=O (centres unmarked) [Compound A109] | 100 | 90 | 100 | 90 | 100 | 90 | 100 | 90
Cc1cc(C)c(C2C(=O)CC(CCN(C)C(=O)Nc3ccccn3)C2=O)c(C)c1 (centres unmarked) [Compound A101, 1-[2-[2,4-dioxo-3-(2,4,6-trimethylphenyl)cyclopentyl]ethyl]-1-methyl-3-(2-pyridyl)urea] | 70 | 40 | 70 | 0 | 70 | 10 | 40 | 30
Cc1cc(C)c(C2C(=O)C[C@H](CCNC(=O)C3=NOC(C)(C)C3)C2=O)c(C)c1 (some centres unmarked) [Compound A103] | 80 | 80 | 80 | 50 | 70 | 60 | 70 | 80
Cc1cc(C)c(C2C(=O)CC(CCNc3ccc([N+](=O)[O-])cc3C(F)(F)F)C2=O)c(C)c1 (centres unmarked) [Compound A104] | 90 | 60 | 80 | 70 | 70 | 90 | 90 | 80
Cc1cc(-c2ccc(C#N)cn2)cc(C)c1C1C(=O)CC(CCNC(=O)C2=NOC(C)(C)C2)C1=O (centres unmarked) [Compound A119] | 90 | 90 | 100 | 80 | 100 | 90 | 100 | 80
C#Cc1cc(C)cc(C)c1C1C(=O)CC(CCNC(=O)C2=NOC(C)(C)C2)C1=O (centres unmarked) [Compound A123, N-[2-[3-(2-ethynyl-4,6-dimethyl-phenyl)-2,4-dioxo-cyclopentyl]ethyl]-5,5-dimethyl-4H-isoxazole-3-carboxamide] | 100 | 70 | 100 | 50 | 100 | 20 | 80 | 90
